Test results from patent publication US9169290B2, “Peptides and their use” (priority 2007, dated 2015).
Ends that are not written are not given here.

Tests used:
C. albicans = type: cell-based, Candida albicans
Description: (§1) Broth Dilution Antifungal Susceptibility Testing
(§2) The sensitivity of relevant fungal strains to the peptides was determined using Clinical Laboratory Standard Institute (CLSI; formerly NCCLS) Approved Standards.

Malasezzia furfur = type: cell-based; conditions: Malasezzia furfur strain DSM6170
Description: as §1, §2

C. krusei = type: cell-based, Candida krusei
Description: as §1, §2

Trichophyton rubrum = type: cell-based
Description: as §1, §2

| Substance | MIC, Candida albicans NCTC3179 (C. albicans) | MIC (Trichophyton rubrum) | other results |
| --- | --- | --- | --- |
| Poly-L-Lysine (MW 0.5-2 kDa) [NP112] |  |  | MIC (Malasezzia furfur): 512 (μg/ml) |
| RRRRR [NP357, RRRRR] |  |  | MIC (C. albicans): >2048 µM |
| RRRVRRR [NP306, RRRVRRR] | >2000 µM | >2 µM |  |
| RRRVVRRR [NP308] | >2000 µM | >2 µM |  |
| RRVRR [NP303, RRVRR] | >2000 µM | >2 µM |  |
| RRVRRVRR [NP309] | >2000 µM | >2 µM |  |
| RRVRVR [NP304, RRVRVR] | >2000 µM | >2 µM |  |
| RRVRVRR [NP307, RRVRVRR] | >2000 µM | >2 µM |  |
| RRVVR [NP302, RRVVR] | >2000 µM | >2 µM |  |
| RRVVRR [NP305, RRVVRR] | >2000 µM | >2 µM |  |
| RRWRR [NP322, RRWRR] | >2000 µM |  |  |
| RRWRRWRR-OH [NP311] | >2000 µM |  |  |
| RRWRWR [NP323, RRWRWR] | 1024 µM |  | MIC, Candida albicans ATCC24433 (C. albicans): 1024 µM; MIC, Candida albicans ATCC90028 (C. albicans): 2000 µM; MIC (C. krusei): 256 µM; MIC, Candida krusei NCPF3953 (C. krusei): 256 µM |
| RRWWR [NP321, RRWWR] | >2000 µM |  |  |
| RVRVR [NP301, RVRVR] | >2000 µM | >2 µM |  |
| RWRWR [NP320, RWRWR] | >2000 µM |  |  |

More lines, main results first:

| MIC, Candida albicans NCTC3179 (C. albicans) | MIC (Trichophyton rubrum) | Substance | other results |
| --- | --- | --- | --- |
| >2000 µM |  | PKTKAKAKAKKGKGKD [NP336] |  |
| 256 µM |  | RRRRWWRRRR [NP329] | MIC (C. albicans): 1024 µM; MIC, Candida albicans ATCC24433 (C. albicans): 512 µM; MIC (C. krusei): 32 µM; MIC, Candida krusei NCPF3953 (C. krusei): 32 µM |
| >2000 µM |  | RRRWRRR [NP325, RRRWRRR] |  |
| 512 µM |  | RRRWWRRR [NP327] | MIC, Candida albicans ATCC24433 (C. albicans): 1024 µM; MIC, Candida albicans ATCC90028 (C. albicans): 512 µM; MIC, Candida krusei NCPF3953 (C. krusei): 64 µM |
| 1024 µM |  | RRWRRWRR [NP328] | MIC, Candida albicans ATCC24433 (C. albicans): 1024 µM; MIC, Candida albicans ATCC90028 (C. albicans): 1024 µM; MIC (C. krusei): 128 µM; MIC, Candida krusei NCPF3953 (C. krusei): 128 µM |
| 2000 µM |  | RRWRWRR [NP326, RRWRWRR] | MIC (C. albicans): 1024 µM; MIC, Candida albicans ATCC24433 (C. albicans): 1024 µM; MIC, Candida albicans ATCC90028 (C. albicans): 1024 µM; MIC (C. krusei): 128 µM; MIC, Candida krusei NCPF3953 (C. krusei): 128 µM |
| 1024 µM |  | RRWWRR [NP324, RRWWRR] | MIC (C. albicans): 1024 µM; MIC, Candida albicans ATCC24433 (C. albicans): 1024 µM; MIC, Candida albicans ATCC90028 (C. albicans): 1024 µM; MIC (C. krusei): 256 µM; MIC, Candida krusei NCPF3953 (C. krusei): 256 µM |
